{"source": "paper PMC7559477", "about": "“Zinc Binding by Histatin 5 Promotes Fungicidal Membrane Disruption in C. albicans and C. glabrata” (Journal of Fungi, 2020)", "tested_on": "Candida glabrata strain Cg931010", "type": "cell-based", "details": "strain Cg931010, 18 h", "description": "Experiments were carried out with Candida albicans strain SC5314 [41] or Candida glabrata strain Cg931010 [42]. Liquid and solid pre-mixed yeast-peptone-dextrose media was used to grow yeast cells (YPD and YPD-Agar, respectively) (Fisher Scientific, Waltham, MA, USA). All media was prepared in deionized water with 50 µg/ mL supplemented uridine (Sigma Aldrich, St. Louis, MO, USA), and sterilized by autoclave. Metal salt solutions of ZnSO4·7H2O (Fisher Scientific, Waltham, MA, USA) were made in High-performance liquid chromatography (HPLC)-grade water (JT Baker, Phillipsburg, NJ, USA) and used within one day of preparation. […]\nCells (C. albicans or C. glabrata) were cultured as previously described. […] Significance of differences in killing between Zn^2+ and Zn^2+-free samples were calculated using one-way ANOVA with Sidak’s multiple comparisons test.\nFigure 6 Zinc greatly increases Hst 5 and P113 killing of C. glabrata, and induces almost immediate ATP efflux. […] Cells were removed from samples via centrifugation and aliquots of supernatant were taken at 1 and 10 min time points to measure extracellular ATP by luminescence. […] Significance of differences in killing and ATP efflux were calculated using one way ANOVA with Sidak’s multiple comparison test. * indicates p ≤ 0.05, **** indicates p ≤ 0.0001"}
{"smiles": "C[C@H](NC(=O)[C@H](Cc1c[nH]cn1)NC(=O)[C@H](CO)NC(=O)[C@@H](N)CC(=O)O)C(=O)N[C@@H](CCCCN)C(=O)N[C@@H](CCCNC(=N)N)C(=O)N[C@@H](Cc1c[nH]cn1)C(=O)N[C@@H](Cc1c[nH]cn1)C(=O)NCC(=O)N[C@@H](Cc1ccc(O)cc1)C(=O)N[C@@H](CCCCN)C(=O)N[C@@H](CCCNC(=N)N)C(=O)N[C@@H](CCCCN)C(=O)N[C@@H](Cc1ccccc1)C(=O)N[C@@H](Cc1c[nH]cn1)C(=O)N[C@@H](CCC(=O)O)C(=O)N[C@@H](CCCCN)C(=O)N[C@@H](Cc1c[nH]cn1)C(=O)N[C@@H](Cc1c[nH]cn1)C(=O)N[C@@H](CO)C(=O)N[C@@H](Cc1c[nH]cn1)C(=O)N[C@@H](CCCNC(=N)N)C(=O)NCC(=O)N[C@@H](Cc1ccc(O)cc1)C(=O)O", "note": "[Hst 5, Histatin 5]", "values": [{"measurement": "killing less than in C. albicans under the same conditions", "value": 40, "unit": "%"}]}
